How the values were obtained:
Assay type in all cases: functional
HL-60(TB) = assay: Growth inhibition of human HL-60(TB) cells assessed as cell growth at 10^-8 M incubated for 48 hrs by sulforhodamine B assay relative to control; conditions: HL-60, 48 h, read-out: Activity
RPMI-8226 = assay: Growth inhibition of human RPMI8226 cells assessed as cell growth at 10^-8 M incubated for 48 hrs by sulforhodamine B assay relative to control; conditions: RPMI-8226, 48 h, read-out: Activity
SR [1] = assay: Growth inhibition of human SR cells assessed as cell growth at 10^-8 M incubated for 48 hrs by sulforhodamine B assay relative to control; conditions: read-out: Activity
HOP-62 [2] = assay: Growth inhibition of human HOP62 cells assessed as cell growth at 10^-8 M incubated for 48 hrs by sulforhodamine B assay relative to control; conditions: HOP-62, 48 h, read-out: Activity
NCI-H460 [3] = assay: Growth inhibition of human NCI-H460 cells assessed as cell growth at 10^-8 M incubated for 48 hrs by sulforhodamine B assay relative to control; conditions: NCI-H460, 48 h, read-out: Activity
COLO 205 = assay: Growth inhibition of human COLO205 cells assessed as cell growth at 10^-8 M incubated for 48 hrs by sulforhodamine B assay relative to control; conditions: COLO 205, 48 h, read-out: Activity
KM12 = assay: Growth inhibition of human KM12 cells assessed as cell growth at 10^-8 M incubated for 48 hrs by sulforhodamine B assay relative to control; conditions: KM12, 48 h, read-out: Activity
LOX IMVI = assay: Growth inhibition of human LOXIMVI cells assessed as cell growth at 10^-8 M incubated for 48 hrs by sulforhodamine B assay relative to control; conditions: read-out: Activity
MDA-MB-435 = assay: Growth inhibition of human MDA-MB-435 cells assessed as cell growth at 10^-8 M incubated for 48 hrs by sulforhodamine B assay relative to control; conditions: MDA-MB-435, 48 h, read-out: Activity
OVCAR-8 [4] = assay: Growth inhibition of human OVCAR8 cells assessed as cell growth at 10^-8 M incubated for 48 hrs by sulforhodamine B assay relative to control; conditions: OVCAR-8, 48 h, read-out: Activity
CAKI-1 = assay: Growth inhibition of human Caki1 cells assessed as cell growth at 10^-8 M incubated for 48 hrs by sulforhodamine B assay relative to control; conditions: CAKI-1, 48 h, read-out: Activity
NCI-H460 [5] = assay: Growth inhibition of human NCI-H460 cells assessed as cell growth at 10^-7 M incubated for 48 hrs by sulforhodamine B assay relative to control; conditions: NCI-H460, 48 h, read-out: Activity
SF-539 = assay: Growth inhibition of human SF539 cells assessed as cell growth at 10^-7 M incubated for 48 hrs by sulforhodamine B assay relative to control; conditions: SF-539, 48 h, read-out: Activity
OVCAR-8 [6] = assay: Growth inhibition of human OVCAR8 cells assessed as cell growth at 10^-7 M incubated for 48 hrs by sulforhodamine B assay relative to control; conditions: OVCAR-8, 48 h, read-out: Activity
SK-OV-3 [7] = assay: Growth inhibition of human SKOV3 cells assessed as cell growth at 10^-7 M incubated for 48 hrs by sulforhodamine B assay relative to control; conditions: SK-OV-3, 48 h, read-out: Activity
MDA-MB-468 = assay: Growth inhibition of human MDA-MB-468 cells assessed as cell growth at 10^-7 M incubated for 48 hrs by sulforhodamine B assay relative to control; conditions: MDA-MB-468, 48 h, read-out: Activity
HOP-62 [8] = assay: Growth inhibition of human HOP62 cells assessed as cell growth at 10^-6 M incubated for 48 hrs by sulforhodamine B assay relative to control; conditions: HOP-62, 48 h, read-out: Activity
NCI-H322M = assay: Growth inhibition of human NCI-H322M cells assessed as cell growth at 10^-6 M incubated for 48 hrs by sulforhodamine B assay relative to control; conditions: read-out: Activity
SF-268 = assay: Growth inhibition of human SF268 cells assessed as cell growth at 10^-6 M incubated for 48 hrs by sulforhodamine B assay relative to control; conditions: SF-268, 48 h, read-out: Activity
Malme-3M = assay: Growth inhibition of human MALME-3M cells assessed as cell growth at 10^-6 M incubated for 48 hrs by sulforhodamine B assay relative to control; conditions: read-out: Activity
SK-MEL-5 = assay: Growth inhibition of human SK-MEL-5 cells assessed as cell growth at 10^-6 M incubated for 48 hrs by sulforhodamine B assay relative to control; conditions: SK-MEL-5, 48 h, read-out: Activity
UACC-257 = assay: Growth inhibition of human UACC257 cells assessed as cell growth at 10^-6 M incubated for 48 hrs by sulforhodamine B assay relative to control; conditions: UACC-257, 48 h, read-out: Activity
SK-OV-3 [9] = assay: Growth inhibition of human SKOV3 cells assessed as cell growth at 10^-6 M incubated for 48 hrs by sulforhodamine B assay relative to control; conditions: SK-OV-3, 48 h, read-out: Activity
T47D = assay: Growth inhibition of human T47D cells assessed as cell growth at 10^-6 M incubated for 48 hrs by sulforhodamine B assay relative to control; conditions: read-out: Activity
CCRF-CEM [10] = assay: Growth inhibition of human CCRF-CEM cells assessed as cell growth at 10^-5 M incubated for 48 hrs by sulforhodamine B assay relative to control; conditions: read-out: Activity
SNB-75 = assay: Growth inhibition of human SNB75 cells assessed as cell growth at 10^-5 M incubated for 48 hrs by sulforhodamine B assay relative to control; conditions: SNB-75, 48 h, read-out: Activity
IGROV-1 = assay: Growth inhibition of human IGROV1 cells assessed as cell growth at 10^-5 M incubated for 48 hrs by sulforhodamine B assay relative to control; conditions: IGROV-1, 48 h, read-out: Activity
OVCAR-5 = assay: Growth inhibition of human OVCAR5 cells assessed as cell growth at 10^-5 M incubated for 48 hrs by sulforhodamine B assay relative to control; conditions: OVCAR-5, 48 h, read-out: Activity
CCRF-CEM [11] = assay: Growth inhibition of human CCRF-CEM cells assessed as cell growth at 10^-4 M incubated for 48 hrs by sulforhodamine B assay relative to control; conditions: read-out: Activity
SR [12] = assay: Growth inhibition of human SR cells assessed as cell growth at 10^-4 M incubated for 48 hrs by sulforhodamine B assay relative to control; conditions: read-out: Activity
NCI-H460 [13] = assay: Growth inhibition of human NCI-H460 cells assessed as cell growth at 10^-4 M incubated for 48 hrs by sulforhodamine B assay relative to control; conditions: NCI-H460, 48 h, read-out: Activity
NCI/ADR-RES = assay: Growth inhibition of human NCI/ADR-RES cells assessed as cell growth at 10^-4 M incubated for 48 hrs by sulforhodamine B assay relative to control; conditions: read-out: Activity
MCF7 = assay: Growth inhibition of human MCF7 cells assessed as cell growth at 10^-4 M incubated for 48 hrs by sulforhodamine B assay relative to control; conditions: MCF7, 48 h, read-out: Activity
MDA-MB-231 = assay: Growth inhibition of human MDA-MB-231 cells assessed as cell growth at 10^-4 M incubated for 48 hrs by sulforhodamine B assay relative to control; conditions: MDA-MB-231, 48 h, read-out: Activity

Question: For `CCCCOc1nc2ccccc2cc1C1CNC(=O)c2ccccc2N1` (centres undefined), which growth at 0.01 µM (HL-60(TB)) is on record?
Answer: The growth at 0.01 µM was 98%.

Question: And the growth at 0.01 µM (RPMI-8226)?
Answer: Its growth at 0.01 µM is 95%.

Question: And the growth at 0.01 µM (SR [1])?
Answer: The growth at 0.01 µM was 86%.

Question: What about the growth at 0.01 µM (HOP-62 [2]) of the same compound?
Answer: Its growth at 0.01 µM is 93%.

Question: What about the growth at 0.01 µM (NCI-H460 [3]) of the same compound?
Answer: Its growth at 0.01 µM is 101%.

Question: What about the growth at 0.01 µM (COLO 205) of the same compound?
Answer: The growth at 0.01 µM was 96%.

Question: And the growth at 0.01 µM (KM12)?
Answer: The growth at 0.01 µM was 98%.

Question: What about the growth at 0.01 µM (LOX IMVI) of the same compound?
Answer: Its growth at 0.01 µM is 95%.

Question: And the growth at 0.01 µM (MDA-MB-435)?
Answer: Its growth at 0.01 µM is 95%.

Question: What about the growth at 0.01 µM (OVCAR-8 [4]) of the same compound?
Answer: The growth at 0.01 µM was 100%.

Question: And the growth at 0.01 µM (CAKI-1)?
Answer: Its growth at 0.01 µM is 83%.

Question: What about the growth at 0.1 µM (NCI-H460 [5]) of the same compound?
Answer: Its growth at 0.1 µM is 102%.

Question: And the growth at 0.1 µM (SF-539)?
Answer: Its growth at 0.1 µM is 93%.

Question: What about the growth at 0.1 µM (OVCAR-8 [6]) of the same compound?
Answer: Its growth at 0.1 µM is 98%.

Question: What about the growth at 0.1 µM (SK-OV-3 [7]) of the same compound?
Answer: Its growth at 0.1 µM is 98%.

Question: What about the growth at 0.1 µM (MDA-MB-468) of the same compound?
Answer: Its growth at 0.1 µM is 93%.

Question: What about the growth at 1 µM (HOP-62 [8]) of the same compound?
Answer: Its growth at 1 µM is 78%.

Question: And the growth at 1 µM (NCI-H322M)?
Answer: The growth at 1 µM was 86%.

Question: And the growth at 1 µM (SF-268)?
Answer: Its growth at 1 µM is 80%.

Question: And the growth at 1 µM (Malme-3M)?
Answer: The growth at 1 µM was 62%.

Question: What about the growth at 1 µM (SK-MEL-5) of the same compound?
Answer: The growth at 1 µM was 73%.

Question: And the growth at 1 µM (UACC-257)?
Answer: Its growth at 1 µM is 70%.

Question: What about the growth at 1 µM (SK-OV-3 [9]) of the same compound?
Answer: Its growth at 1 µM is 80%.

Question: What about the growth at 1 µM (T47D) of the same compound?
Answer: The growth at 1 µM was 86%.

Question: What about the growth at 10 µM (CCRF-CEM [10]) of the same compound?
Answer: Its growth at 10 µM is 11%.

Question: What about the growth at 10 µM (SNB-75) of the same compound?
Answer: The growth at 10 µM was 13%.

Question: And the growth at 10 µM (IGROV-1)?
Answer: Its growth at 10 µM is 31%.

Question: And the growth at 10 µM (OVCAR-5)?
Answer: The growth at 10 µM was 38%.

Question: What about the growth at 100 µM (CCRF-CEM [11]) of the same compound?
Answer: Its growth at 100 µM is -17%.

Question: And the growth at 100 µM (SR [12])?
Answer: Its growth at 100 µM is -25%.

Question: What about the growth at 100 µM (NCI-H460 [13]) of the same compound?
Answer: Its growth at 100 µM is -73%.

Question: What about the growth at 100 µM (NCI/ADR-RES) of the same compound?
Answer: The growth at 100 µM was -50%.

Question: What about the growth at 100 µM (MCF7) of the same compound?
Answer: The growth at 100 µM was -40%.

Question: And the growth at 100 µM (MDA-MB-231)?
Answer: Its growth at 100 µM is -53%.
